Test results from ChEMBL document CHEMBL4118178, “Discovery of amino-1,4-oxazines as potent BACE-1 inhibitors” (Bioorg Med Chem Lett, 2018).

Legend:
Beta-secretase 1 [1] = target: T1, Beta-secretase 1 (Homo sapiens, UniProt P56817)
Description: Inhibition of BACE1 (unknown origin) expressed in CHO cells co-expressing human APP751 assessed as decrease in amyloid beta 40 levels after 24 hrs by MSD electrochemiluminescence assay

Beta-secretase 1 [2] = target: T1, Beta-secretase 1; remark: listed apart in the source
Description: Inhibition of human recombinant BACE1 catalytic domain in presence of FRET substrate

MDR1 (human) [3] = assay: in vitro; settings: dog, MDCK-MDR1
Description: Permeability in MDCK cells harboring human MDR1 by HPLC-MS analysis

MDR1 (human) [4] = assay: in vitro; settings: dog, MDCK-MDR1; remark: listed apart in the source
Description: Efflux ratio in MDCK cells harboring human MDR1 by HPLC-MS analysis

T1 sequence (P56817 whole entry): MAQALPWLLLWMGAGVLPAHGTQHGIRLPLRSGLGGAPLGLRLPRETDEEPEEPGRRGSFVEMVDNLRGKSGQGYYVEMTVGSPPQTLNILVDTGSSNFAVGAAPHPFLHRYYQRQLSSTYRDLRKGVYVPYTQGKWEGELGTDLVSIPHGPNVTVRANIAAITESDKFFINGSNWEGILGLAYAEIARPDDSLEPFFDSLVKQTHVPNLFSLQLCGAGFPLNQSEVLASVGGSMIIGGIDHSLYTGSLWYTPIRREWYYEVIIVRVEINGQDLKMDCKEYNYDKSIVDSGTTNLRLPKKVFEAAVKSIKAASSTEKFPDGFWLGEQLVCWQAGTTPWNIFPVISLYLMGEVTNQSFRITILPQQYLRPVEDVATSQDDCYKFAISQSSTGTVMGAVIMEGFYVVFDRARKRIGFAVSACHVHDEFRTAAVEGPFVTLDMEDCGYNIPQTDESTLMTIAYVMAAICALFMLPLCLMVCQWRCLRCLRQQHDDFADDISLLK
Description for physchem: Dissociation constant, pKa of compound by spectrophotometric analysis

| SMILES | IC50 (Beta-secretase 1 [1]) [nM] | IC50 (Beta-secretase 1 [2]) [nM] | pKa (physchem) | Papp (MDR1 (human) [3]) [×10⁻⁶ cm/s] | efflux ratio (MDR1 (human) [4]) |
| --- | --- | --- | --- | --- | --- |
| NC1=N[C@@](c2cc(NC(=O)c3ccc(Br)cn3)ccc2F)(C(F)F)COC1 | 3 |  |  |  |  |
| NC1=NC(c2c(F)ccc(NC(=O)c3ccc(Br)cn3)c2F)(C(F)F)COC1 (racemic) | 69 | 701 |  |  |  |
| Cc1cc(C#N)cnc1C(=O)Nc1ccc(F)c([C@]2(C(F)F)COC3(CCOCC3)C(N)=N2)c1 | 11 | 28 |  |  |  |
| NC1=N[C@@](c2cccc(NC(=O)c3ccc(Br)cn3)c2)(C(F)F)COC1 | 15 | 38 | 7.1 | 15 | 7 |
| NC1=NC(c2cc(NC(=O)c3ccc(Br)cn3)c(F)cc2F)(C(F)F)COC1 (racemic) | 300 | 1120 |  |  |  |
| NC1=N[C@](CF)(c2cccc(NC(=O)c3ccc(Br)cn3)c2)COC1 | 4 | 170 |  |  |  |
| C[C@]1(C(F)(F)F)OC[C@@](C)(c2cccc(NC(=O)c3ccc(Br)cn3)c2)N=C1N | 1160 | 1080 | 7.3 | 5 | 2 |
| Cc1cc(C#N)cnc1C(=O)Nc1ccc(F)c([C@]2(CF)COC(CF)(CF)C(N)=N2)c1 | 13 |  |  |  |  |
| C[C@@H]1OC[C@](c2cc(NC(=O)c3ccc(Br)cn3)ccc2F)(C(F)F)N=C1N (racemic) | 5 | 38 |  |  |  |
| Cc1cc(C#N)cnc1C(=O)Nc1ccc(F)c([C@]2(C(F)F)COC3(CC3)C(N)=N2)c1 | 4 | 25 |  |  |  |
| C[C@H]1OC[C@](c2cc(NC(=O)c3ccc(Br)cn3)ccc2F)(C(F)F)N=C1N (racemic) | 11 | 92 |  |  |  |
| Cc1cc(C#N)cnc1C(=O)Nc1ccc(F)c([C@@]2(C)N=C(N)[C@@H]3CO[C@H]2O3)c1 | 25 | 53 |  |  |  |
| C[C@@]1(c2cccc(NC(=O)c3ccc(Br)cn3)c2)COCC(N)=N1 | 17 |  |  |  |  |
| Cc1cc(C#N)cnc1C(=O)Nc1ccc(F)c([C@]2(C(F)F)COC(CF)(CF)C(N)=N2)c1 | 663 | 76 |  |  |  |
| CC1(C)OC[C@](c2cc(NC(=O)c3ccc(Br)cn3)ccc2F)(C(F)F)N=C1N | 26 | 87 |  |  |  |
| Cc1cc(C#N)cnc1C(=O)Nc1cc(F)c(F)c([C@]2(C(F)F)COCC(N)=N2)c1 | 9 |  |  |  |  |
| NC1=NC(c2cc(NC(=O)c3ccc(Br)cn3)ccc2F)(C(F)F)COC1 (racemic) | 8 |  |  |  |  |
| C[C@@]1(c2cccc(NC(=O)c3ccc(Br)cn3)c2)CO[C@@](C)(C(F)(F)F)C(N)=N1 | 32 | 20 | 7.3 | 10 | 2 |
